According to patent publication EP0642343B1, “Acridine carboxamides for the treatment of cancer” (XENOVA LIMITED, priority 1992, dated 1993):
Where two headings read alike, the source gives them in different places.

Columns and labels:
[1] = Pharmacokinetic and tissue distribution studies (tritium label, HPLC); format: in vivo; details: for tissue concentration: 1 h after intraperitoneal 400 µmol/kg, HPLC; for AUC: ip, 400 umol/kg, intraperitoneal 400 µmol/kg
From the text: We believe that administration of DACA at the new divided dose-high constituent dose frequency regime mentioned above will be helpful in combating brain tumours.

[2] = test system: a variety of human and mouse cell lines and in a panel of 60 human cell lines; assay: Cytotoxicity under continuous drug exposure (growth inhibition); format: cell-based; details: continuous drug exposure over approx. 5 cell doubling times; range over the cell lines
Experimental: (§1) The latter value compared with 2 µM for the 4-pyridyl-quinoline analogue, 0.76 µM for amsacrine, 0.1 µM for the amsacrine analogue 4'-(9-[4-[N-methylcarboxamido]-5-methyl]-acridinylamino)-methanesulphon-m-anisidide ("CI-921") and 81 µM for etoposide.

[3] = test system: P388 murine leukaemia (P/ACTD); assay: Sensitivity of multidrug resistant P388 subline in vivo
Experimental: A multidrug resistant subline of P388 murine leukaemia (P/ACTD) was tested for sensitivity to DACA. This line was cross-resistant to actinomycin D, doxo-rubicin, mitoxantrone, etoposide and vincristine. Its resistance to vincristine was overcome by the presence of verapamil (10 µM). It stained for the presence of P-glycoprotein, consistent with the presence of transport-mediated multidrug resistance.

human cell lines = assay: Cytotoxicity under continuous drug exposure, mean over human cell lines; format: cell-based; details: continuous drug exposure over approx. 5 cell doubling times, read-out: mean IC50 value for human cell lines
Experimental: as §1

[4] = test system: primary human melanoma cultures; assay: cells; details: for IC50: Homo sapiens
Experimental: Acridine carboxamide hydrochloride, synthesised in the Cancer Research Laboratory (Atwell G.J., et al., J.Med. Chem. 1987, 30, 664-669), and amsacrine isethionate, obtained from the Parke-Davis Division of the Warner-Lambert Company, Ann Arbor, USA, were dissolved in 50% v/v aqueous ethanol to make stock solutions of 2-5 mmol/l and stored at -20°C. Other cytotoxic drugs were available either from the NCI repository (Monks A., et al., J. Natl. Cancer Inst. 1991, 83, 757-766) or were obtained as described in Marshall E.S., et al., J. Natl. Cancer Inst. 1992, 84, 341-344 and Finlay, et al., Eur. J. Cancer din. Oncol. 1986, 22, 655-662. Cell lines were from the NCI repository except for MM-96 (Dr. R. Whitehead, Ludwig Institute, Melbourne, Australia), FME (Dr. K.M. Tveit, Norwegian Radium Hospital, Oslo, Norway) and Jurkat normal and multidrug-resistant lines (Dr. K. Snow and Dr. W. Judd, Department of Cellular and Molecular Biology, University of Auckland). Melanoma tissue was obtained from patients with pathologically confirmed metastatic and recurrent melanomas under Auckland Hospital Ethical Committee guidelines. Cells were released by digestion of tissue (at 50 mg.ml^-1) with collagenase (1 mg.ml^-1) and DNAase (50 µg.ml^-1) with continuous stirring at 37°C for 1 to 2 hours, and cultured as previously described (Marshall E.S., et al., J. Natl. Cancer Inst. 1992, 84, 341-344).
(§2) Tumour cell lines were cultured in 96-well plates. Growth of NCI cell lines was assessed using sulpho-rhodamine B staining (Skehan P., et al., J. Natl. Cancer Inst. 1990, 82, 1107-1112), that of the leukaemia lines with (4,5-dimethylthiazole-2-yl)-2,5-diphenyltetrazolium (MTT) staining (Mosmann T., J. Immun. Methods 1983, 65, 55-63) and that of the primary human tumour material by ^3H-thymidine incorporation (Marshall E.S., et al., J. Natl. Cancer Inst. 1992, 84, 341-344). Primary tumour material was cultured in 96-well plates in which the wells were coated with agarose to inhibit selectively the growth of normal cells. (Marshall E.S., et al., J. Natl. Cancer Inst. 1992, 84, 341-344). Primary cultures were incubated at 37°C in sealed perspex boxes containing a humidified atmosphere of 5% CO2 and 5% O2 in nitrogen for 7 days. 5-Methyl-[^3H]-thymidine (20 Ci.mmol^-1; 0.04 µCi per well), thymidine and 5-fluorodeoxyuridine (each at final concentrations of 0.5 µM) were added in medium to cultures (20 µl per well) 24 h before terminating the cultures. Cells were aspirated on to glass fibre filters using a multiple automated sample harvester (LKB Wallac OY Beta Harvester). The filter discs were washed for 15 seconds with water, dried, and the amount of tritium retained quantified by liquid scintillation.
(§3) IC50 values were defined as in Paull K.D., et al., J. Natl. Cancer Inst. 1989, 81:1088-1092, where growth, as indicated by staining or thymidine incorporation, corresponded to 50% of that of the control cultures. […] Variances of DELTA values were expressed as standard deviations in log10 units. Comparison of DELTA values was made using Pearson correlation coefficients. Resistance factors were defined as the ratios of IC50 values between the resistant line and the parent line. Statistical evaluation was performed either with NCI programmes, with RS/1 software (BBN Research Systems, Cambridge, MA, USA), or with Sigmaplot (Jandel Scientific, San Rafael, CA, USA).
DACA was also compared in a series of 12 primary melanoma cultures. Tissue was excised from human malignant melanomas and cultured using a modified 96-well assay system in which the cells were cultured on agarose and assayed for proliferation using the ^3H-thymidine incorporation assay as described in Marshall E.S., et al., J. Natl. Cancer Inst. 1992, 84, 341-344.

[5] = test system: panel of cell lines encompassing a number of tumour types; assay: NCI cell line panel, growth inhibition by protein staining; format: cell-based; details: data provided by the National Cancer Institute
Experimental: as §2, §3

CN(C)CCNC(=O)c1cccc2cc3ccccc3nc12 [DACA, N-[2-(dimethylamino)ethyl]acridine-4-carboxamide]
tissue concentration ([1]; brain): 45 µmol/kg
tissue concentration ([1]; heart): 57 µmol/kg
AUC ([1]; brain, read-out: AUC): 218 µM·h
AUC ([1]; heart, read-out: AUC): 147 µM·h
AUC ([1]; kidney, read-out: AUC): 492 µM·h
AUC ([1]; liver, read-out: AUC): 547 µM·h
AUC ([1]; plasma, read-out: plasma AUC): 26.6 µM·h
tissue concentration ([1]; kidney): 139 µmol/kg
tissue concentration ([1]; liver): 185 µmol/kg
elimination t1/2 ([1]; tritium-labelled DACA, tissues including brain): 37 to 176 h
IC50 [2]: 90 to 3400 nM
sensitivity of P/ACTD line [3]: sensitive
IC50 (human cell lines): 1300 nM
IC50 ([4]; read-out: IC50 values): 200 to 1500 nM
IC50 ([4]; read-out: mean IC50): 590 nM
proportions of cells killed ([4]; human, primary melanoma cultures): > 99%
IC50 [5]: 2100 nM
